From patent publication US8993606B2, “Oral formulations for treating metal overload” (FerroKin BioSciences, Inc., priority 2011, dated 2015)
Read-outs that look alike come from different tables or passages of the source.

How the values were obtained:
[1] = Example 7: high single doses in healthy human subjects (PK); assay type: in vivo; settings: fasted; for CL renal / AUC(0-inf) / Cmax / Tmax / Vd/F / half-life: both sexes, human; for CL renal: plasma and urine; for AUC(0-inf) / Cmax / Tmax / Vd/F / half-life: plasma; for Vd/F: read-out: Vz/F; for half-life: read-out: t½ (converted)
Description: Subjects were male and female healthy human volunteers aged between 18 and 50 years, free from clinically significant illness or disease as determined by their medical/surgical history, physical examination etc., and having a serum ferritin>20 ng/mL. Subjects were given, in the fasted state, either 30, 40, 50, or 60 mg/kg Compound 1 as a blended formulation of 96% (wt/wt) drug substance (powder) with 3% (wt/wt) croscarmellose sodium and 1% (wt/wt) magnesium stearate dispensed in hard gelatin capsules in strengths of 50 mg, 100 mg, 250 mg, and 375 mg.
The 30 and 50 mg/kg dose groups each contained seven subjects; data from only four of these subjects was used to calculate AUCinf, t½, CL/F, and VZ/F. The 40 and 60 mg/kg dose groups each contained three subjects; data from only three of these subjects was used to calculate AUCinf, t½, CL/F, and VZ/F.
Blood samples of approximately 7 mL were drawn via cannula at 0.25, 0.5, 0.75, 1, 1.25, 1.5, 2, 2.5, 4, 8, 12 and 24 hours post-dose, for pharmacokinetic analysis. (See FIG. 2.) Urine was collected over the time periods 0-4, 4-8, 8-12 and 12-24 hours post-dose for pharmacokinetic and pharmacodynamic assessment.
PK plasma and PK urine samples were assayed by a validated LC/MS/MS method, specific for the determination of Compound 1. Pharmacokinetic parameters for Compound 1 will be calculated using non-compartmental analysis. Only plasma and urine concentrations greater than the lower limits of quantitation (LOQ, 5 ng/mL in plasma and urine) for the assays will be used in the pharmacokinetic analysis.

[2] = Example 8: single-dose study in healthy human subjects 3-16 mg/kg (PK); assay type: in vivo; settings: for half-life / AUC(0-t) / AUC(0-inf) / Cmax / Tmax: male, human, plasma; for AUC(0-t) / Cmax / Tmax: mean of 3 subjects
Description: Example 8 was a double-blind, placebo-controlled single dose-escalating study in healthy subjects. Men between the ages of 18-45 years qualified to participate if they were able to voluntarily give consent and had no clinically significant abnormal findings at the screening evaluation. Specifically, subjects had blood pressure in the normal range, ECG and clinical laboratory values within normal limits, tested negative for drugs of abuse and had not recently donated blood. Subjects were also HIV, Hepatitis B, and Hepatitis C negative and agreed to use an approved method of contraception during the study.
The objectives of this study were to assess the safety, tolerability, and pharmacokinetics of ascending single doses of Compound 1 compared to placebo. Additionally, dose proportionality and pharmacodynamics of Compound 1 were assessed. Four doses of Compound 1 (3, 6, 10, and 16 mg/kg), in capsule form, were evaluated in this study. Following screening, subjects in a given cohort were randomly assigned to receive either Compound 1 or placebo. In the first cohort, 3 subjects received […] and 2 received placebo; in each of the subsequent remaining 3 cohorts, 3 subjects received the next higher dose of Compound 1 and 1 received placebo. Subjects were dosed and then confined to the clinical research unit for 24 hours to conduct safety and pharmacokinetic assessments. Subjects were released from the clinic on Day 2 and returned daily for follow-up visits for 5 days post-dosing.
All 12 subjects who received a dose of Compound 1 were included in the analysis of pharmacokinetic parameters. All 17 subjects enrolled in the study were included in the analysis of pharmacodynamics.
Blood samples for determination of total (free and iron bound complex) plasma Compound 1 concentrations were collected on Day 1 at pre-dose (within 60 minutes prior to dose administration) and then at 0.25, 0.5, 0.75, 1, 1.5, 2, 2.5, 3, 3.5, 4, 8, 12 hours post-dose; on Day 2 at 24 and 36 hours post-dose; on Day 3 at 48 hours post-dose, on Day 4 at 72 hours post-dose; and on Day 5 at 96 hours post-dose.
Total urine collection for pharmacokinetic and pharmacodynamic assessment was performed at pre-dose and then for intervals 0-4, 4-8, 8-12, 12-24 hours post-dose. Collection of total urine for 24 hours post-dose for pharmacokinetic analysis was complete for all subjects who received a dose of Compound 1. It was noted, however, that Subject R105 (placebo) voided into the toilet once (at 3 minutes post-dose) during the 0-4 hour post-dose urine collection interval.

[3] = single oral dose 10 mg/kg, mean
[4] = single oral dose 16 mg/kg, mean

COCCOCCOCCOc1cccc(C2=N[C@@](C)(C(=O)O)CS2)c1O [Compound 1, (S)-4,5-Dihydro-2-[2-hydroxy-3-(3,6,9-trioxadecyloxy)phenyl]-4-methyl-4-thiazolecarboxylate magnesium hydroxide]
CL renal ([1]; single oral dose 30 mg/kg): 139 ± 13.2 mL/min | CL renal ([1]; single oral dose 40 mg/kg): 152 ± 18 mL/min | CL renal ([1]; single oral dose 50 mg/kg): 103 ± 16.2 mL/min | CL renal ([1]; single oral dose 60 mg/kg): 146 ± 34.4 mL/min | AUC(0-inf) ([1]; single oral dose 30 mg/kg): 161 ± 24.1 µg·h/mL | Cmax ([1]; single oral dose 30 mg/kg): 68.2 ± 17.5 µg/mL | Tmax ([1]; single oral dose 30 mg/kg): 1 h | Vd/F ([1]; single oral dose 30 mg/kg): 248 ± 58.8 L | half-life ([1]; single oral dose 30 mg/kg): 12.1 ± 3.05 h | AUC(0-inf) ([1]; single oral dose 40 mg/kg): 195 ± 67.3 µg·h/mL | Cmax ([1]; single oral dose 40 mg/kg): 87.9 ± 15 µg/mL | Tmax ([1]; single oral dose 40 mg/kg): 1.38 h | Vd/F ([1]; single oral dose 40 mg/kg): 542 ± 657 L | half-life ([1]; single oral dose 40 mg/kg): 18.6 ± 19.2 h | AUC(0-inf) ([1]; single oral dose 50 mg/kg): 236 ± 58.3 µg·h/mL | Cmax ([1]; single oral dose 50 mg/kg): 91.7 ± 18.8 µg/mL | Tmax ([1]; single oral dose 50 mg/kg): 1.5 h | Vd/F ([1]; single oral dose 50 mg/kg): 338 ± 272 L | half-life ([1]; single oral dose 50 mg/kg): 12.8 ± 7.66 h | AUC(0-inf) ([1]; single oral dose 60 mg/kg): 227 ± 44.7 µg·h/mL | Cmax ([1]; single oral dose 60 mg/kg): 104 ± 36.7 µg/mL | Tmax ([1]; single oral dose 60 mg/kg): 1.25 h | Vd/F ([1]; single oral dose 60 mg/kg): 285 ± 159 L | half-life ([1]; single oral dose 60 mg/kg): 8.44 ± 3.83 h | CL/F ([1]; single oral dose 30 mg/kg): 239 ± 17.2 mL/min | CL/F ([1]; single oral dose 40 mg/kg): 290 ± 73.8 mL/min | CL/F ([1]; single oral dose 50 mg/kg): 286 ± 56.1 mL/min | CL/F ([1]; single oral dose 60 mg/kg): 381 ± 55.8 mL/min | dose dependence of mean Cmax and AUC ([2]; 3-16 mg/kg): linear across the dose range | total fraction of administered drug excreted in urine over 24 hour, range ([2]; across all 4 dose levels): 19-83% | total fraction of administered drug excreted in urine over 24 hour, average ([2]; all 4 dose levels, standard deviation 18%): 59% | half-life ([2]; oral, 11 of 12 subjects, 3-16 mg/kg, read-out: median t1/2 (converted)): 7.32 h | half-life ([2]; oral, 11 of 12 subjects, 3-16 mg/kg, read-out: t1/2, range): 3.77 to 35.2 h | half-life ([2]; oral, 11 of 12 subjects, 3-16 mg/kg, standard deviation 10.1, read-out: mean t1/2 (converted)): 12.8 h | AUC(0-t) ([2]; po, 3 mg/kg, single oral dose 3 mg/kg, read-out: AUC0-24): 12.1 µg·h/mL | AUC(0-t) ([2]; po, 3 mg/kg, single oral dose 3 mg/kg, read-out: AUC0-t): 12.1 µg·h/mL | half-life ([2]; po, 3 mg/kg, single oral dose 3 mg/kg, mean, read-out: t1/2 (converted)): 4.4 h | AUC(0-t) ([2]; po, 6 mg/kg, single oral dose 6 mg/kg, read-out: AUC0-24): 24.7 µg·h/mL | AUC(0-t) ([2]; po, 6 mg/kg, single oral dose 6 mg/kg, read-out: AUC0-t): 25.3 µg·h/mL | half-life ([2]; po, 6 mg/kg, single oral dose 6 mg/kg, mean, read-out: t1/2 (converted)): 15.4 h | AUC(0-t) ([2]; po, 10 mg/kg, single oral dose 10 mg/kg, read-out: AUC0-24): 42.7 µg·h/mL | AUC(0-t) ([2]; po, 10 mg/kg, single oral dose 10 mg/kg, read-out: AUC0-t): 43.4 µg·h/mL | half-life ([2]; po, 10 mg/kg, single oral dose 10 mg/kg, mean, read-out: t1/2 (converted)): 16.1 h | AUC(0-t) ([2]; po, 16 mg/kg, single oral dose 16 mg/kg, read-out: AUC0-24): 74.6 µg·h/mL | AUC(0-t) ([2]; po, 16 mg/kg, single oral dose 16 mg/kg, read-out: AUC0-t): 75.4 µg·h/mL | half-life ([2]; po, 16 mg/kg, single oral dose 16 mg/kg, mean, read-out: t1/2 (converted)): 16.1 h | AUC(0-inf) ([2]; single oral dose 3 mg/kg, mean): 12.2 µg·h/mL | Cmax ([2]; single oral dose 3 mg/kg): 5.41 µg/mL | Tmax ([2]; single oral dose 3 mg/kg): 1.33 h | AUC(0-inf) ([2]; single oral dose 6 mg/kg, mean): 26.6 µg·h/mL | Cmax ([2]; single oral dose 6 mg/kg): 12.2 µg/mL | Tmax ([2]; single oral dose 6 mg/kg): 0.92 h | AUC(0-inf) [2, 3]: 43.6 µg·h/mL | Cmax ([2]; single oral dose 10 mg/kg): 16.6 µg/mL | Tmax ([2]; single oral dose 10 mg/kg): 1.17 h | AUC(0-inf) [2, 4]: 75.6 µg·h/mL | Cmax ([2]; single oral dose 16 mg/kg): 34.8 µg/mL | Tmax ([2]; single oral dose 16 mg/kg): 1 h | kel ([2]; single oral dose 3 mg/kg, mean): 0.1595 h⁻¹ | kel ([2]; single oral dose 6 mg/kg, mean): 0.0469 h⁻¹ | kel [2, 3]: 0.0562 h⁻¹ | kel [2, 4]: 0.0779 h⁻¹
